Consider 2 molecules from article PMC3930709, “Selective Activation of hTRPV1 by N-Geranyl Cyclopropylcarboxamide, an Amiloride-Insensitive Salt Taste Enhancer” (PLoS ONE, 2014).

Test [1] addresses T1, αβγ hENaC (Homo sapiens, UniProt P37088+P51168+P51170).
T1 construct: GFP; host or cells: HEK293T
T1 sequence (P37088 1-669): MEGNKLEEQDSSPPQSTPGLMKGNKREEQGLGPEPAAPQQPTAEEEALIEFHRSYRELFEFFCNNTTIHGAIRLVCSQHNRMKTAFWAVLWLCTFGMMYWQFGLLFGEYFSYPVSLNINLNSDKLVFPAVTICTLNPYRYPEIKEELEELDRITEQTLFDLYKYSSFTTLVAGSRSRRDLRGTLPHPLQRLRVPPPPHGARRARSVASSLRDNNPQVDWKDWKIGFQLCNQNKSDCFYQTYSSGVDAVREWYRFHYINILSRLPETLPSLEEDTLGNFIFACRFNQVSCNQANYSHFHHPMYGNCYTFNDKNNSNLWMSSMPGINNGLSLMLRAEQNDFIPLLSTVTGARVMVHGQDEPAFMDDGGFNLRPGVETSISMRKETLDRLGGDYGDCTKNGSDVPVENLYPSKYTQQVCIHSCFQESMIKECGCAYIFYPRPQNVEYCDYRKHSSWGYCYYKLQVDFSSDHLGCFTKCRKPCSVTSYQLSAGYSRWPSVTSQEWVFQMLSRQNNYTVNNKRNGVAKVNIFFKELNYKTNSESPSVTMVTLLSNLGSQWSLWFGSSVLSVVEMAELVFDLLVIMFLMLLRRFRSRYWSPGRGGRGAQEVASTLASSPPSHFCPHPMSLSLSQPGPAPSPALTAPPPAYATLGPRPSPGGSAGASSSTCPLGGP
T1 sequence (P51168 1-640): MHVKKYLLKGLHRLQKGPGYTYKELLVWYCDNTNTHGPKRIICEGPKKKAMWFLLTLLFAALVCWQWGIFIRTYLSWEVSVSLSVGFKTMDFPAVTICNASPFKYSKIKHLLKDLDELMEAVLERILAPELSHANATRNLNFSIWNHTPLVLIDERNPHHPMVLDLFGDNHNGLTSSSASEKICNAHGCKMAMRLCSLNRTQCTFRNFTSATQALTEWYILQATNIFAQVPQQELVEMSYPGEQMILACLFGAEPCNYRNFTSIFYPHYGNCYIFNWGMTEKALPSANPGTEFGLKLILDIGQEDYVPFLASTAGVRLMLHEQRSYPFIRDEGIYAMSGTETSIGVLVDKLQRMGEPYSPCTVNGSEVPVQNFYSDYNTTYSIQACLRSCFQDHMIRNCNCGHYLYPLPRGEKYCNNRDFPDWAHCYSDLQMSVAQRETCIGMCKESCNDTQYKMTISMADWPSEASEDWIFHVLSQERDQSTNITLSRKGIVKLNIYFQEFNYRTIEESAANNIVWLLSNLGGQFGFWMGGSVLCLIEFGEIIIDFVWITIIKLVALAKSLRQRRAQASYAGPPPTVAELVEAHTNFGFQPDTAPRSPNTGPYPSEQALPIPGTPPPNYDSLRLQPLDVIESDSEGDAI
T1 sequence (P51170 1-649): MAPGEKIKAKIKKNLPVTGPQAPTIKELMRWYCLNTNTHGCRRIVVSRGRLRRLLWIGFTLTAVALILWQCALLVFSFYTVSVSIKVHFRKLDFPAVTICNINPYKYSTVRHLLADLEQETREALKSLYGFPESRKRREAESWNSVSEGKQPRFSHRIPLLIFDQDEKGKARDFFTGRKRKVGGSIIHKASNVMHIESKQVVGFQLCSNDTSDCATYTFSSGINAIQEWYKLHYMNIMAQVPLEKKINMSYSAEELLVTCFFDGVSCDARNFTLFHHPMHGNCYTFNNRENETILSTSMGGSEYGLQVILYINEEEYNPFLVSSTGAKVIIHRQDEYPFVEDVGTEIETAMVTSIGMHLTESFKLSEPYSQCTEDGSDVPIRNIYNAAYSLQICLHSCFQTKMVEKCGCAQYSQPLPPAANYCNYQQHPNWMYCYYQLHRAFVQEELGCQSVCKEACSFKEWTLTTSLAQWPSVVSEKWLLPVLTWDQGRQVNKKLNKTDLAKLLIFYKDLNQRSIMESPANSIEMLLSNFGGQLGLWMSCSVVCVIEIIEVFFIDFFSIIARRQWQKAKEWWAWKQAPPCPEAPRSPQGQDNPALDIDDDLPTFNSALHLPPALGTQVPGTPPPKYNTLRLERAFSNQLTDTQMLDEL
Also on record: method as in PMID 18326490. The following applies: read-out: EC50 of S3969 obtained by patch-clamp; cited from earlier work. A general note: In patch-clamp work, channel activity is measured electrically.

In test [2] the target is T1, αβγ hENaC. The test is described as follows: Membrane potential assay (FMP dye) on αβγ hENaC-expressing cells. The test is classed as cell-based. The note with it: 0.03-10 µM; read-out: EC50, depolarization of membrane potential in hENaC expressing cells. As to the method: The α, β, and γ hENaC subunits were cloned from OriGene (Rockville, MD; GenBank accession number […] for SCNN1A, NM_000336 for SCNN1B and NM_001039 for SCNN1G). α, GFP-tagged β, and γ hENaC were cloned into a CMV promoter-based vector and expressed constitutively. The HEK293T cells were seeded onto a 35 mm dish and transfected with α, β, and γ hENaC expression plasmid using Lipofectamine 2000 (Invitrogen). Then, transfected cells were seeded onto 96-well black-wall plate for 18–26 h prior to their use in an experiment.
hENaC-expressing cells were characterized using FLIPER Membrane Potential (FMP) Assay Kit (Molecular Devices Corporation, Sunnyvale, CA, USA). In this assay, changes in the membrane potential were quantified via fluorescence change caused by FMP dye. The hENaC-expressing cells were washed with assay buffer (containing: 130 mM NaCl, 10 mM glucose, 5 mM KCl, 2 mM CaCl2, 1.2 mM MgCl2, and 10 mM HEPES, pH adjusted to 7.4 with NaOH) and subsequently, FMP blue-dye in assay buffer was loaded into the cells at room temperature for 30 min. After dye treatment, S3969 (0.03−10 µM), an ENaC agonist, S3969+Bz (ENaC antagonist, 0.01 µM), or NGCC (0.01−10 µM) was treated to hENaC-expressing cells. The plate was assayed in a FlexStation III plate reader (Molecular devices Corporation) by excitation at 530 nm and measuring the emission at 560 nm.

A further test relates to human δβγ ENaC. Also on record: method as in PMID 18326490. The following applies: cited from earlier work.
Test [3] concerns chorda tympani (CT) taste nerve response to NaCl. Set-up: method as in PMID 12736236, PMID 16809639. The following applies: cited from earlier work.
The subject of another test is human αβγ ENaC. Also on record: method as in PMID 18326490. The following applies: cited from earlier work.
The test system of test [4] is lingual surface potential to salt stimuli. Set-up: method as in PMID 12736236, PMID 16809639. The following applies: amiloride 100 µM, humans, gustometer; cited from earlier work.

Where two headings read alike, the source gives them in different places.

The EC50 is the concentration needed to bring the measured effect to its halfway point. What is called IC50 is the midpoint of a concentration-inhibition curve.

Regarding `Cc1cccc2[nH]cc(SC(CC(C)C)C(=O)NCCO)c12` (stereo not drawn) [S3969], the EC50 at αβγ hENaC [1] was 1200 ± 100 nM; at αβγ hENaC [2], 1260 ± 290 nM.
As to `N=C(N)NC(=O)c1nc(Cl)c(N)nc1N` [amiloride], the figures for the IC50 in the test on human δβγ ENaC and in the test on human αβγ ENaC were ~2700 nM and ~110 nM, respectively. Also, the “inhibition of chorda tympani (CT) taste nerve response to NaCl” value in test [3] is “about 70%”. In addition, the “reduction of lingual surface potential to salt stimuli” value in test [4] is recorded as 5–40%.
